According to patent US10017492B2 (KANGPU BIOPHARMACEUTICALS, LTD., priority 2014, dated 2018):

Columns and labels:
[1] = tested on: MM.1S cells (myeloma cells); assay: Cell proliferation assay (MTS), MM.1S myeloma cells; assay type: cell-based; settings: Homo sapiens, MM1.S, 72 hours, read-out: IC50 values of MMIS Inhibition
Description: MM.1S cells (myeloma cells) (ATCC, catalog number CRL-2974) were seeded at 1.8×10^3 per well to a 96-well culture plate containing […] (Gibco, catalog number A10491-01), and were incubated in an incubator for 24 hours at 37° C. under 5% CO2. Compounds were prepared as 20 mM stock solutions with DMSO (Sigma, catalog number D2650), and were diluted with the medium to the desired concentration (the final concentration of DMSO was 0.5%) and then were added to each well, incubated in an incubator for 72 hours at 37° C. under 5% CO2. Then, 20 μL MTS (Promega, catalog number G3581) was added to each well, and further incubated for 1-4 hours in an incubator at 37° C. under 5% CO2. OD490 nm was detected with OD650 nm as reference. The control, a solution containing 0.5% DMSO medium, was as 0% inhibition. GraphPad Prism 5 was used, slope was allowed to change to make the dose-effect curve and IC50 values were calculated, shown in table 2 for details.

TNF-α = TNF-α activity inhibiting assay (LPS-stimulated peripheral blood, ELISA); assay type: cell-based, human; settings: Homo sapiens, compound 100 nM, diluted peripheral blood of healthy volunteers, LPS 10 ng/mL, 6 hours, read-out: Inhibitory Rate on TNF-α (%)
Description: TNF-α Activity Inhibiting Assay
Peripheral blood from healthy volunteers was collected and collected with EDTA anticoagulant tubes. After being diluted 5-fold with 1640 medium (Gibco, catalog number 11875-093, USA), the blood was added to 96-well cell culture plates (Costar, catalog number 3599, USA) and then treated with 10 μL solution of the compound of general formula (I) of the present invention in DMSO (Sigma, catalog number D2650, USA). The final concentration of the compound was 100 nM, and the final concentration of DMSO was 0.2%. After incubation for 60 minutes in an incubator at 37° C. under 5% CO2, 10 μL LPS (Sigma, catalog number L-2880, USA) was added to the reaction system, and the final concentration was 10 ng/mL. After further culturing for 6 hours in the incubator at 37° C. under 5% CO2, the supernatant was collected. The content of TNF-α was determined by ELISA (BD Biosciences, catalog number 555212, USA). Absorbance was detected at OD450 nm with a microplate reader, with OD 650 nm as reference. The control, a solution containing 0.2% DMSO medium, was as 0% inhibition. Raw data and standard curves were recorded. The four-parameter drug inhibition curve was plotted by XL-fit software and the inhibition rate of each compound was calculated, as shown in Table 1.

IC50 [1] [nM] | Structure (SMILES) | inhibition at 0.1 µM (TNF-α) [%]
≥ 300 | Nc1ccc(F)c(CNc2cccc3c2CN(C2CCC(=O)NC2=O)C3=O)c1 (centres unmarked) [Compound A391, 3-(4-((5-amino-2-fluorobenzyl)amino)-1-oxoisoindolin-2-yl)piperidine-2,6-dione] | ≥ 50
< 300 | Cc1ccc(CNc2cccc3c2CN(C2CCC(=O)NC2=O)C3=O)cc1C (centres unmarked) [Compound A350, 3-(4-((3,4-dimethylbenzyl)amino)-1-oxoisoindolin-2-yl)piperidine-2,6-dione] | < 50
< 300 | NC(=O)c1cccc(CNc2cccc3c2CN(C2CCC(=O)NC2=O)C3=O)c1F (centres unmarked) [Compound A361, 3-(((2-(2,6-Dioxopiperidin-3-yl)-1-oxoisoindolin-4-yl)amino)methyl)-2-fluorobenzamide] | ≥ 50
< 300 | O=C1CCC(N2Cc3c(NCc4cc(OCCN5CCOCC5)ccc4F)cccc3C2=O)C(=O)N1 (centres unmarked) [Compound A368, 3-(4-((2-fluoro-5-(2-morpholinoethoxy)benzyl)amino)-1-oxoisoindolin-2-yl)piperidine-2,6-dione] | ≥ 50
≥ 300 | CNc1ccc(F)c(COc2cccc3c2CN(C2CCC(=O)NC2=O)C3=O)c1 (centres unmarked) [Compound A390, 3-(4-((2-fluoro-5-(methylamino)benzyl)oxy)-1-oxoisoindolin-2-yl)piperidine-2,6-dione] | ≥ 50
< 300 | [2H][C@]1(N2Cc3c(NCc4cc(CN5CCOCC5)ccc4F)cccc3C2=O)CCC(=O)NC1=O [Compound A401, (S)-3-deuterium-3-(4-((2-fluoro-5-(morpholinomethyl)benzyl)amino)-1-oxoisoindolin-2-yl)piperidine-2,6-dione] | ≥ 50
< 300 | Cc1ccc(CNc2cccc3c2CN(C2CCC(=O)NC2=O)C3=O)cc1Cl (centres unmarked) [Compound A352, 3-(4-((3-chloro-4-methylbenzyl)amino)-1-oxoisoindolin-2-yl)piperidine-2,6-dione] | < 50
< 300 | Cc1cc(CNc2cccc3c2CN(C2CCC(=O)NC2=O)C3=O)ccc1F (centres unmarked) [Compound A351, 3-(4-((4-fluoro-3-methylbenzyl)amino)-1-oxoisoindolin-2-yl)piperidine-2,6-dione] | < 50

Further lines, the compound ahead of its results:

Structure (SMILES) | IC50 [1] [nM] | inhibition at 0.1 µM (TNF-α) [%]
O=C1CCC(N2Cc3c(NCc4cc(OCCN5CCCC5)ccc4F)cccc3C2=O)C(=O)N1 (centres unmarked) [Compound A376, 3-(4-((2-fluoro-5-(2-(pyrrolidin-1-yl)ethoxy)benzyl)amino)-1-oxoisoindolin-2-yl)piperidine-2,6-dione] | < 300 | ≥ 50
COc1ccc(CNc2cccc3c2CN(C2CCC(=O)NC2=O)C3=O)cc1Cl (centres unmarked) [Compound A354, 3-(4-((3-chloro-4-methoxybenzyl)amino)-1-oxoisoindolin-2-yl)piperidine-2,6-dione] | < 300 | < 50
Cc1cccc(CNc2cccc3c2CN(C2CCC(=O)NC2=O)C3=O)c1F (centres unmarked) [Compound A367, 3-(4-((2-fluoro-3-methylbenzyl)amino)-1-oxoisoindolin-2-yl)piperidine-2,6-dione] | < 300 | ≥ 50
COc1ccc(CNc2cccc3c2CN(C2CCC(=O)NC2=O)C3=O)cc1OC (centres unmarked) [Compound A349, 3-(4-((3,4-dimethoxybenzyl)amino)-1-oxoisoindolin-2-yl)piperidine-2,6-dione] | ≥ 300 | < 50
O=C1CCC(N2Cc3c(OCc4cc(CN5CCOCC5)ccc4F)cccc3C2=O)C(=O)N1 (centres unmarked) [Compound A398, 3-(4-((2-fluoro-5-(morpholinomethyl)benzyl)oxy)-1-oxoisoindolin-2-yl)-piperidine-2,6-dione] | < 300 | ≥ 50
CN(C)C(=O)Oc1ccc(F)c(CNc2cccc3c2CN(C2CCC(=O)NC2=O)C3=O)c1 (centres unmarked) [Compound A378, 3-(((2-(2,6-dioxopiperidin-3-yl)-1-oxoisoindolin-4-yl)amino)methyl)-4-fluorophenyl dimethylcarbamate] | ≥ 300 | < 50
[2H][C@@]1(N2Cc3c(NCc4cc(OC)ccc4F)cccc3C2=O)CCC(=O)NC1=O [Compound A342, (R)-3-deuterium-3-(4-((2-fluoro-5-methoxybenzyl)amino)-1-oxoisoindolin-2-yl)piperidine-2,6-dione] | ≥ 300 | < 50
COc1ccc(F)c(CNc2cccc3c2CN([C@@H]2CCC(=O)NC2=O)C3=O)c1 [Compound A341, (R)-3-(4-((2-fluoro-5-methoxybenzyl)amino)-1-oxoisoindolin-2-yl)piperidine-2,6-dione] | < 300 | < 50
CNC(=O)c1cccc(CNc2cccc3c2CN(C2CCC(=O)NC2=O)C3=O)c1F (centres unmarked) [Compound A362, 3-(((2-(2,6-Dioxopiperidin-3-yl)-1-oxoisoindolin-4-yl)amino)methyl)-2-fluoro-N-methylbenzamide] | ≥ 300 | < 50
COc1ccc(F)c(CNc2cc(F)cc3c2CN(C2CCC(=O)NC2=O)C3=O)c1 (centres unmarked) [Compound A320, 3-(6-fluoro-4-((2-fluoro-5-methoxybenzyl)amino)-1-oxoisoindolin-2-yl)-piperidine-2,6-dione] | ≥ 300 | < 50
CNC(=O)Oc1ccc(F)c(CNc2cccc3c2CN(C2CCC(=O)NC2=O)C3=O)c1 (centres unmarked) [Compound A371, 3-(((2-(2,6-Dioxopiperidin-3-yl)-1-oxoisoindolin-4-yl)amino)methyl)-4-fluorophenyl methylcarbamate] | < 300 | ≥ 50
COc1cccc(CNc2cccc3c2CN(C2CCC(=O)NC2=O)C3=O)c1F (centres unmarked) [Compound A196, 3-(4-((2-fluoro-3-methoxybenzyl)amino)-1-oxoisoindolin-2-yl)piperidine-2,6-dione] | < 300 | ≥ 50
Nc1cccc(CNc2cccc3c2CN(C2CCC(=O)NC2=O)C3=O)c1F (centres unmarked) [Compound A384, 3-(4-((3-amino-2-fluorobenzyl)amino)-1-oxoisoindolin-2-yl)piperidine-2,6-dione] | < 300 | ≥ 50
CNc1cccc(COc2cccc3c2CN(C2CCC(=O)NC2=O)C3=O)c1F (centres unmarked) [Compound A385, 3-(4-((2-fluoro-3-(methylamino)benzyl)oxy)-1-oxoisoindolin-2-yl)piperidine-2,6-dione] | < 300 | ≥ 50
CN1CCN(CCOc2ccc(F)c(CNc3cccc4c3CN(C3CCC(=O)NC3=O)C4=O)c2)CC1 (centres unmarked) [Compound A377, 3-(4-((2-fluoro-5-(2-(4-methylpiperazin-1-yl)ethoxy)benzyl)amino)-1-oxoisoindolin-2-yl)piperidine-2,6-dione] | ≥ 300 | < 50
O=C1CC[C@H](N2Cc3c(NCc4ccc(CN5CCOCC5)cc4)cccc3C2=O)C(=O)N1 [Compound A346, (S)-3-(4-((4-(morpholinomethyl)benzyl)amino)-1-oxoisoindolin-2-yl) piperidine-2,6-dione] | < 300 | ≥ 50
CN(C)CCOc1ccc(F)c(CNc2cccc3c2CN(C2CCC(=O)NC2=O)C3=O)c1 (centres unmarked) [Compound A363, 3-(4-((5-(2-(Dimethylamino)ethoxy)-2-fluorobenzyl)amino)-1-oxoisoindolin-2-yl)piperidine-2,6-dione] | ≥ 300 | < 50
[2H][C@]1(N2Cc3c(OCc4cccc(OC)c4F)cccc3C2=O)CCC(=O)NC1=O [Compound A380, (S)-3-deuterium-3-(4-((2-fluoro-3-methoxybenzyl)oxy)-1-oxoisoindolin-2-yl)piperidine-2,6-dione] | < 300 | < 50
[2H][C@]1(N2Cc3c(NCc4cc(OC)ccc4F)cccc3C2=O)CCC(=O)NC1=O [Compound A343, (S)-3-deuterium-3-(4-((2-fluoro-5-methoxybenzyl)amino)-1-oxoisoindolin-2-yl)piperidine-2,6-dione] | < 300 | ≥ 50
O=C1CCC(N2Cc3c(NCc4ccc(CN5CCOCC5)cc4)cc(F)cc3C2=O)C(=O)N1 (centres unmarked) [Compound A405, 3-(6-fluoro-4-((4-(morpholinomethyl)benzyl)amino)-1-oxoisoindolin-2-yl)piperidine-2,6-dione] | ≥ 300 | < 50
